The target in series [1] is T1, KOR (Homo sapiens, UniProt P41145).
T1 construct: expressed in transfected cells
In words: Opioid receptor binding assay, KOR ([3H]Diprenorphine). The following applies: MaxDose 10000 nM. The protocol: (§1) Receptor binding assays were performed to assess the ability of compounds to inhibit binding to radiolabeled ligand.
(§2) The stable cell lines were established and prepared cell membrane obtained using these cell lines.
(§3) 3) Assay Procedure 1) Transfer 1 μl of specified concentration compound to assay plate according to the plate map for nonspecific binding. Transfer 1 μl of DMSO to assay plate according to plate map for total binding. 2) Follow the plate map. Dispense 99 μl of membrane stocks into the plate. 3) Add 100 μl of radio ligand. 4) Seal the plates. Incubate at RT for 1 hour. 5) Soak the Unifilter-96 GF/C filter plates with 50 μl of 0.3% PEI per well for at least 0.5 hour at room temperature. 6) When binding assays are completed, filter the reaction mixture through GF/C plates using Perkin Elmer Filtermate Harvester, and then wash each plate for 4 times with cold wash buffer. 7) Dry the filter plates for 1 hour at 50 degrees. 8) After drying, seal the bottom of the filter plate wells using Perkin Elmer Unifilter-96 backing seal tape. Add 50 μl of Perkin Elmer Microscint 20 cocktail. Seal top of filter plates with Perkin Elmer TopSeal-A sealing film. 9) Count ^3H trapped on filter using Perkin Elmer MicroBeta2 Reader second day. 10) Analyze the data with GraphPad Prism 5. […]

For series [2], the target named is T2, MOR (Homo sapiens, UniProt P35372).
T2 construct: expressed in transfected cells
T2 sequence (P35372 whole entry): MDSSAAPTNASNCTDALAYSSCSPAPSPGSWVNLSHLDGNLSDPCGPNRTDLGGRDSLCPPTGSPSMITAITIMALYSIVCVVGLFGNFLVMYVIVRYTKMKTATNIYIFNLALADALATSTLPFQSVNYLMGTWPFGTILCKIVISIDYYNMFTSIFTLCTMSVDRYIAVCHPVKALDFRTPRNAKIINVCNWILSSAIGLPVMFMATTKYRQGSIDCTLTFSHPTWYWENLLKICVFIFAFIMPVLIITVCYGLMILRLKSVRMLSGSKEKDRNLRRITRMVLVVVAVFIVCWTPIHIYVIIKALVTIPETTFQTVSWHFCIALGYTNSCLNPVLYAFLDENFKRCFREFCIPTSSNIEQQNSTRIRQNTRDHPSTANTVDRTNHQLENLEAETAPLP
In words: Opioid receptor binding assay, MOR ([3H]DAMGO). The note with it: MaxDose 10000 nM. The protocol:
as §1, §2, §3

For series [3] the following is noted: Water; heating temp. 40 °C, obs. temp. 40 °C.

T1 sequence (P41145 whole entry): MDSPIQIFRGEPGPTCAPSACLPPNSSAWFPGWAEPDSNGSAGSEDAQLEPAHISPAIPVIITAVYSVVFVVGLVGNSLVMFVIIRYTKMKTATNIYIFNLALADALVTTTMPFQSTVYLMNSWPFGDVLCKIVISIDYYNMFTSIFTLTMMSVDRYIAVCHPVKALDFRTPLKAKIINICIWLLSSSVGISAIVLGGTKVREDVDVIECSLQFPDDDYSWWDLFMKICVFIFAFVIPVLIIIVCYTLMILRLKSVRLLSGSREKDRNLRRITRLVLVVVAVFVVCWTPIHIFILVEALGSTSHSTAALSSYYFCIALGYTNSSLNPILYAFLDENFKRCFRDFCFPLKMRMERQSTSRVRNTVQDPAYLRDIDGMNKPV

With `C=C1CC[C@@]2(O)C3Cc4ccc(OCOC(=O)OCCCCCCCCCCCCCCCC)c5c4[C@@]2(CCN3CC2CC2)[C@H]1O5` [Compound 34, (((4aS,7aS,12bS)-3-(cyclopropylmethyl)-4a-hydroxy-7-methylene-2,3,4,4a,5,6,7,7a-octahydro-1H-4,12-methanobenzofuro[3,2-e]isoquinolin-9-yl)oxy)methyl hexadecyl carbonate], the “% Inh@MaxDose” value in series [1] was found to be 68.1%; in series [2], 92.7%. Further, the “Equilibrium solubility (mg/mL) Water” value in series [3] is given as less than 0.001 mg/mL.
